Data taken from PubChem BioAssay AID2060903 (Molecular Pharmacology Branch, DTP, NCI, 2025).
One block for each compound: values may come before it.

Tested on: 377384-186-R-J1-PDC complex spheroid viability
Assay: Anticancer human tumor 377384-186-R-J1-PDC patient-derived pancreatic carcinoma cell line growth inhibition [RAS]
Conditions: for IC50: curve of first compound; for viability, T/C: stronger effect = lower value
Excerpt: RAS pathway inhibitors in Combinations in Complex Spheroids
A high-throughput screen of multi-cell type tumor spheroids was designed to identify active combinations of RAS pathway inhibitors and targeted small molecules. Complex spheroids include a stromal component modeled by human endothelial cells (HUVEC) and fibroblasts modeled by human mesenchymal stem cells (MSCs). The concentration ranges selected for each drug and investigational agent were based upon clinically achievable concentrations if the clinical Cmax of the agent was known.
Compounds. The drugs and investigational agents: abemaciclib (NSC768073), cobimetinib (NSC768068), divarasib (GDC6063, NSC841802), docetaxel (NSC628503), GDC-1971 (RLY-1971, NSC841576), gemcitabine (NSC613327), inavolisib (NSC800729), ipatasertib (NSC767898), KB-0742 (NSC834161), MRTX-1133 (NSC836407), osimertinib (NSC779217), RMC-4630 (NSC839698), RMC-6236 (NSC851965), RMC-6291 (NSC852671), Ro-3306 (NSC812927), sapanisertib (NSC764658), SN-38 (NSC673596), staurosporine (NSC755774), SY5609 (NSC837396), and tovorafenib (DAY101, NSC766906), were obtained from the National Cancer Institute (NCI) Developmental Therapeutics Program Chemical Repository. The FDA-approved anticancer drug set is available from the NCI Developmental Therapeutics Program. […] The stock solutions were prepared in dimethyl sulfoxide (DMSO, Sigma-Aldrich, St. Louis, MO, cat. D2650) at 800-fold the tested concentration and stored at -70 degrees C prior to their use. All drugs and investigational agents were tested over a range starting from a high concentration at or near the clinical Cmax and decreasing in half-log increments. If the clinical Cmax for an agent had not been determined, the highest concentration tested was 10 microM.
Cell Culture. All cells were maintained in an incubator at 37 degrees C and 5% CO2 with 95% humidity. The PDC lines were cultured according to standard operating procedures established by the NCI PDMR. All PDCs were thawed and cultured in Matrigel-coated flasks prepared with a working solution of 1X Ham's F-12 nutrient mix, without supplementation (Invitrogen, Waltham, MA, cat. 11765054), 100 U/mL penicillin-streptomycin (Invitrogen, cat. 15140122), and 2.5% Matrigel (Corning Inc., Corning, NY, cat. 354248) for the first three passages. The 362531-283-R-J2-PDC and 782815-120-R-J1-PDC lines were cultured in 6C/Colon 1B media, which includes advanced DMEM/F-12 (Thermo Fisher Scientific, cat. 12634028), 10 mM HEPES (Thermo Fisher Scientific, cat. 15630080), 1X GlutaMAX supplement (Thermo Fisher Scientific, cat. 35050061), 0.1 mg/mL primocin (InvivoGen, San Diego, CA, cat. ant-pm-2), 10% defined fetal bovine serum, heat inactivated (HyClone Laboratories Inc., Logan, UT, cat. SH30070.03HI), 50% L-WRN conditioned media (ATCC, cat. CRL-3276), 1.25 mM N-Acetyl-L-cysteine (Sigma-Aldrich, cat. A9165), 10 mM nicotinamide (Sigma-Aldrich, cat. N0636), 1X B-27 supplement (Thermo Fisher Scientific, cat. 17504044), 1X N-2 supplement (Thermo Fisher Scientific, cat. 17502048), 50 ng/mL human EGF (Thermo Fisher Scientific, cat. PHG0311), and 10 microM Y-27632 dihydrochloride (Tocris Bioscience, cat. 1254). The K12877-001-R-J1-PDC line was cultured in 6I media, which includes all 6C/Colon 1B media plus 10 ng/mL human FGF-10 (PeproTech, cat. 100-26), 1 ng/mL human FGF-2 (PeproTech, cat. 100-18B), 1 µM prostaglandin E2 (Tocris Bioscience, cat. 2296), […] hydrocortisone (Sigma-Aldrich, cat. H4001), and […] bovine insulin (Sigma-Aldrich, cat. I6634). The K86415-001-R-J1-PDC line was cultured in 6D media, which includes all 6C/Colon 1B media components minus the L-WRN conditioned media. The 485176-168-R4-J1-PDC was cultured in PANC media, which includes all 6C/Colon 1B media plus 100 ng/mL human FGF-10 (PeproTech, cat. 100-26), 500 nM SB-431542 (Selleckchem, cat. S1067), and 10 nM gastrin (Tocris Bioscience, cat. 3006). […]

[1] = second compound 0.0316 µM, first compound 0.0316 µM
[2] = second compound 0.0316 µM, first compound 0.1 µM
[3] = second compound 0.0316 µM, first compound 0.316 µM
[4] = second compound 0.0316 µM, first compound 1 µM
[5] = second compound 0.0316 µM, first compound 3.16 µM
[6] = second compound 0.0316 µM, first compound 10 µM
[7] = second compound 0.1 µM, first compound 0.0316 µM
[8] = second compound 0.1 µM, first compound 0.1 µM
[9] = second compound 0.1 µM, first compound 0.316 µM
[10] = second compound 0.1 µM, first compound 1 µM
[11] = second compound 0.1 µM, first compound 3.16 µM
[12] = second compound 0.1 µM, first compound 10 µM
[13] = second compound 0.316 µM, first compound 0.0316 µM
[14] = second compound 0.316 µM, first compound 0.1 µM
[15] = second compound 0.316 µM, first compound 0.316 µM
[16] = second compound 0.316 µM, first compound 1 µM
[17] = second compound 0.316 µM, first compound 3.16 µM
[18] = second compound 0.316 µM, first compound 10 µM
[19] = second compound 1 µM, first compound 0.0316 µM
[20] = second compound 1 µM, first compound 0.1 µM
[21] = second compound 1 µM, first compound 0.316 µM
[22] = second compound 1 µM, first compound 1 µM
[23] = second compound 1 µM, first compound 3.16 µM
[24] = second compound 1 µM, first compound 10 µM
[25] = second compound 3.16 µM, first compound 0.0316 µM
[26] = second compound 3.16 µM, first compound 0.1 µM
[27] = second compound 3.16 µM, first compound 0.316 µM
[28] = second compound 3.16 µM, first compound 1 µM
[29] = second compound 3.16 µM, first compound 3.16 µM
[30] = second compound 3.16 µM, first compound 10 µM
[31] = second compound 10 µM, first compound 0.0316 µM
[32] = second compound 10 µM, first compound 0.1 µM
[33] = second compound 10 µM, first compound 0.316 µM
[34] = second compound 10 µM, first compound 1 µM
[35] = second compound 10 µM, first compound 3.16 µM
[36] = second compound 10 µM, first compound 10 µM
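Also: spheroids exposed to compounds for seven days before readout.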

IC50 (second compound 0.0316 µM): < 31.6 nM
IC50 (second compound 0.1 µM): < 31.6 nM
IC50 (second compound 0.316 µM): < 31.6 nM
IC50 (second compound 1 µM): < 31.6 nM
IC50 (second compound 3.16 µM): < 31.6 nM
IC50 (second compound 10 µM): < 31.6 nM
Compound: CCC(CC)c1cc(NC2CCC(N)C2)n2nccc2n1 (stereo unspecified) + C#Cc1c(F)ccc2cc(O)cc(-c3ncc4c(N5CC6CCC(C5)N6)nc(OCC56CCCN5CC(F)C6)nc4c3F)c12
viability, T/C [1]: 27.3%
viability, T/C [2]: 24.2%
viability, T/C [3]: 22.7%
viability, T/C [4]: 16%
viability, T/C [5]: 1.58%
viability, T/C [6]: 5.35%
viability, T/C [7]: 10.8%
viability, T/C [8]: 12.2%
viability, T/C [9]: 7.8%
viability, T/C [10]: 9.56%
viability, T/C [11]: 1.88%
viability, T/C [12]: 5.23%
viability, T/C [13]: 5.57%
viability, T/C [14]: 5.89%
viability, T/C [15]: 4.79%
viability, T/C [16]: 4.23%
viability, T/C [17]: 1.7%
viability, T/C [18]: 5.13%
viability, T/C [19]: 3.15%
viability, T/C [20]: 3.52%
viability, T/C [21]: 2.78%
viability, T/C [22]: 3.71%
viability, T/C [23]: 2.1%
viability, T/C [24]: 6.67%
viability, T/C [25]: 2.7%
viability, T/C [26]: 2.53%
viability, T/C [27]: 2.14%
viability, T/C [28]: 2.51%
viability, T/C [29]: 1.88%
viability, T/C [30]: 6.5%
viability, T/C [31]: 1.53%
viability, T/C [32]: 1.24%
viability, T/C [33]: 1.12%
viability, T/C [34]: 1.66%
viability, T/C [35]: 1.33%
viability, T/C [36]: 3.5%

IC50 (second compound 0.0316 µM): < 31.6 nM
IC50 (second compound 0.1 µM): < 31.6 nM
IC50 (second compound 0.316 µM): < 31.6 nM
IC50 (second compound 1 µM): < 31.6 nM
IC50 (second compound 3.16 µM): < 31.6 nM
IC50 (second compound 10 µM): < 31.6 nM
Compound: Cc1nc(N2CCC3(CC2)COC(C)C3N)c(CO)nc1Sc1ccnc(N)c1Cl (stereo unspecified) + C#Cc1c(F)ccc2cc(O)cc(-c3ncc4c(N5CC6CCC(C5)N6)nc(OCC56CCCN5CC(F)C6)nc4c3F)c12
viability, T/C [1]: 12.6%
viability, T/C [2]: 5.6%
viability, T/C [3]: 3.15%
viability, T/C [4]: 1.95%
viability, T/C [5]: 1.57%
viability, T/C [6]: 0.92%
viability, T/C [7]: 5.2%
viability, T/C [8]: 3.07%
viability, T/C [9]: 1.59%
viability, T/C [10]: 0.92%
viability, T/C [11]: 0.97%
viability, T/C [12]: 0.63%
viability, T/C [13]: 2.68%
viability, T/C [14]: 1.49%
viability, T/C [15]: 0.84%
viability, T/C [16]: 0.98%
viability, T/C [17]: 0.78%
viability, T/C [18]: 0.67%
viability, T/C [19]: 1.74%
viability, T/C [20]: 1.54%
viability, T/C [21]: 1.31%
viability, T/C [22]: 0.99%
viability, T/C [23]: 0.81%
viability, T/C [24]: 0.51%
viability, T/C [25]: 1.99%
viability, T/C [26]: 1.51%
viability, T/C [27]: 1.34%
viability, T/C [28]: 0.77%
viability, T/C [29]: 0.8%
viability, T/C [30]: 0.33%
viability, T/C [31]: 1.85%
viability, T/C [32]: 0.91%
viability, T/C [33]: 0.69%
viability, T/C [34]: 0.44%
viability, T/C [35]: 0.38%
viability, T/C [36]: 0.14%

IC50 (second compound 0.0316 µM): < 31.6 nM
IC50 (second compound 0.1 µM): < 31.6 nM
IC50 (second compound 0.316 µM): < 31.6 nM
IC50 (second compound 1 µM): < 31.6 nM
IC50 (second compound 3.16 µM): < 31.6 nM
IC50 (second compound 10 µM): < 31.6 nM
Compound: NC1c2ccccc2OC12CCN(c1cnc3c(N4CCCc5ncccc54)n[nH]c3n1)CC2 (stereo unspecified) + C#Cc1c(F)ccc2cc(O)cc(-c3ncc4c(N5CC6CCC(C5)N6)nc(OCC56CCCN5CC(F)C6)nc4c3F)c12
viability, T/C [1]: 2.52%
viability, T/C [2]: 1.69%
viability, T/C [3]: 1.2%
viability, T/C [4]: 0.72%
viability, T/C [5]: 0.33%
viability, T/C [6]: 0.32%
viability, T/C [7]: 1.81%
viability, T/C [8]: 1.39%
viability, T/C [9]: 0.82%
viability, T/C [10]: 0.62%
viability, T/C [11]: 0.38%
viability, T/C [12]: 0.25%
viability, T/C [13]: 1.2%
viability, T/C [14]: 0.66%
viability, T/C [15]: 0.72%
viability, T/C [16]: 0.67%
viability, T/C [17]: 0.35%
viability, T/C [18]: 0.35%
viability, T/C [19]: 1.27%
viability, T/C [20]: 1.46%
viability, T/C [21]: 0.57%
viability, T/C [22]: 0.5%
viability, T/C [23]: 0.21%
viability, T/C [24]: 0.22%
viability, T/C [25]: 0.86%
viability, T/C [26]: 1.11%
viability, T/C [27]: 0.52%
viability, T/C [28]: 0.29%
viability, T/C [29]: 0.29%
viability, T/C [30]: 0.34%
viability, T/C [31]: 0.92%
viability, T/C [32]: 0.33%
viability, T/C [33]: 0.31%
viability, T/C [34]: 0.14%
viability, T/C [35]: 0.19%
viability, T/C [36]: 0.12%
